In patent publication US9102648B1, “Bioavailable diacylhydrazine ligands for modulating the expression of exogenous genes via an ecdysone receptor complex” (Intrexon Corporation, priority 2003, dated 2015):

Assays:
[1] = target: GAL4 DBD (1-147)-CfEcR(DEF)/VP16AD-βRXREF-LmUSPEF (Choristoneura fumiferana, UniProt O77240); test: cell-based; details: for Fold Induction, 27-63 Assay, 3.3 uM: 3.3 uM ligand; for Fold Induction, 27-63 Assay, 3.3 uM / Fold Induction, 27-63 Assay, 33 uM: RLU ligand treated / RLU DMSO treated cells; for Fold Induction, 27-63 Assay, 3.3 uM / Fold Induction, 27-63 Assay, 33 uM / EC50: average of two wells; for Fold Induction, 27-63 Assay, 33 uM: 33 uM ligand; for 27-63 assay Rel Max FI: maximum fold induction at any concentration relative to that of GS-E ligand, CHO 27-63 cells; for EC50: read-out: 27-63 assay EC50, CHO 27-63 stable cell line, luciferase reporter
Excerpt: GAL4 DBD (1-147)-CfEcR(DEF)/VP16AD-βRXREF-LmUSPEF:
The wild-type D, E, and F domains from spruce budworm Choristoneura fumiferana EcR (“CfEcR-DEF”; SEQ ID NO: 1) were fused to a GAL4 DNA binding domain (“Gal4DBD1-147”; SEQ ID NO: 2) and placed under the control of a phosphoglycerate kinase promoter (“PGK”; SEQ ID NO: 3). Helices 1 through 8 of the EF domains from Homo sapiens RXRβ (“HsRXRβ-EF”; nucleotides 1-465 of SEQ ID NO: 4) and helices 9 through 12 of the EF domains of Locusta migratoria Ultraspiracle Protein (“LmUSP-EF”; nucleotides 403-630 of SEQ ID NO: 5) were fused to the transactivation domain from VP16 (“VP16AD”; SEQ ID NO: 6) and placed under the control of an elongation factor-1α promoter (“EF-1α”; SEQ ID NO: 7). Five consensus GAL4 response element binding sites (“5XGAL4RE”; comprising 5 copies of a GAL4RE comprising SEQ ID NO: 8) were fused to a synthetic TATA minimal promoter (SEQ ID NO: 9) and placed upstream of the luciferase reporter gene (SEQ ID NO: 10).
CHO cells were transiently transfected with transcription cassettes for GAL4 DBD (1-147) CJEcR(DEF) and for VP16AD βRXREF-LmUSPEF controlled by ubiquitously active cellular promoters (PGK and EF-la, respectively) on a single plasmid. Stably transfected cells were selected by Zeocin resistance. Individually isolated CHO cell clones were transiently transfected with a GAL4 RE-luciferase reporter (pFR Luc). 27-63 clone was selected using Hygromycin.
Cells were trypsinized and diluted to a concentration of 2.5×10^4 cells mL. 100 μL of cell suspension was placed in each well of a 96 well plate and incubated at 37° C. under 5% CO2 for 24 h. Ligand stock solutions were prepared in DMSO and diluted 300 fold for all treatments. Dose response testing consisted of 8 concentrations ranging from […] to 0.01 μM.
Luciferase reporter gene expression was measured 48 h after cell treatment using Bright-Glo™ Luciferase Assay System from Promega (E2650). Luminescence was detected at room temperature using a Dynex MLX microtiter plate luminometer.
(§1) Each assay was conducted in two separate wells, and the two values were averaged. Fold inductions were calculated by dividing relative light units (“RLU”) in ligand treated cells with RLU in DMSO treated cells. EC50s were calculated from dose response data using a three-parameter logistic model.

[2] = target: T1, Bombyx mori EcR (VP16 fusion, CVBE switch construct) (Bombyx mori, UniProt P49881); test: Z3 Assay (HEK-293 cells with CVBE and 6XEcRE LacZ, β-galactosidase reporter); details: for Fold Induction, Z3 Assay, 3.3 uM: 3.3 uM ligand; for Fold Induction, Z3 Assay, 3.3 uM / Fold Induction, Z3 Assay, 33 uM: ligand treated / DMSO treated cells; for Fold Induction, Z3 Assay, 3.3 uM / EC50 / Fold Induction, Z3 Assay, 33 uM: average of two wells; for Z3 assay Rel Max FI: maximum fold induction at any concentration relative to that of GS-E ligand; for Z3 assay Rel Max FI / EC50: HEK-293 Z3 cells; for EC50: read-out: Z3 assay EC50, β-galactosidase reporter; for Fold Induction, Z3 Assay, 33 uM: 33 uM ligand
T1 sequence (P49881 86-606): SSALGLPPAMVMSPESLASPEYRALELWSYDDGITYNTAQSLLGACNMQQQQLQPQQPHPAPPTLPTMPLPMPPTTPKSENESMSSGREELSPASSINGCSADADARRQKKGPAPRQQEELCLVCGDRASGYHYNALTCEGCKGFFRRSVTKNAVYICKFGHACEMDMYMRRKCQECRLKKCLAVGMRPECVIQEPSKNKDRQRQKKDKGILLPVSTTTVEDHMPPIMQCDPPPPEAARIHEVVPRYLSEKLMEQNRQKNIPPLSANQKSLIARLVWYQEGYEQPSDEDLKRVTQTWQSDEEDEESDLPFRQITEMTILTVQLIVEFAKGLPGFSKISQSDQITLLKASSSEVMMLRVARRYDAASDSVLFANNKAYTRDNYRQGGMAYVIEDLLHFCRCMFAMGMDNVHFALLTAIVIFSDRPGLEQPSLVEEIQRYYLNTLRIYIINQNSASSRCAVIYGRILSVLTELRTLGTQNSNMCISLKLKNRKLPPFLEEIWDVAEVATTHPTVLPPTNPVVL
T1 sequence (P19793 1-462 partner): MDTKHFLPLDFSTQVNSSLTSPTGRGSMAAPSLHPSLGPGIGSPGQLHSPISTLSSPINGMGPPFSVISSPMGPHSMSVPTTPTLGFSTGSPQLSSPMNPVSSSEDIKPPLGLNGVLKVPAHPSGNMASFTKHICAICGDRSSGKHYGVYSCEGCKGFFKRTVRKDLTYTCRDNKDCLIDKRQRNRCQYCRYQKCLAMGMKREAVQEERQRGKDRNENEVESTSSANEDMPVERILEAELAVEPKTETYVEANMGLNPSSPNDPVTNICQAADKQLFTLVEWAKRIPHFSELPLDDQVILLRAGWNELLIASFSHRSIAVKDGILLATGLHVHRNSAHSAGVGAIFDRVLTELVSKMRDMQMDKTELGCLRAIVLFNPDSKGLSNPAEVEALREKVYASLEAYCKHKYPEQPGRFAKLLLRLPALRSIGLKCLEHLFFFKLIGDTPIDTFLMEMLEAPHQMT
Excerpt: Dr. F. Gage provided a population of stably transformed cells containing CVBE and 6XEcRE as described in Suhr, S. T., Gil, E. B., Senut M. C., Gage, F. H. (1998) Proc. Natl. Acad. Sci. USA 95, 7999-804. Human 293 kidney cells, also referred to as HEK-293 cells, were sequentially infected with retroviral vectors encoding first the switch construct CVBE, and subsequently the reporter construct 6XEcRE Lac Z. The switch construct contained the coding sequence for amino acids 26-546 from Bombyx mori EcR (BE) (Iatrou) inserted in frame and downstream of the VP16 transactivation domain (VBE). A synthetic ATG start codon was placed under the control of cytomegalovirus (CVBE) immediate early promoter and flanked by long terminal repeats (LTR). The reporter construct contained six copies of the ecdysone response element (EcRE) binding site placed upstream of LacZ and flanked on both sides with LTR sequences (6XEcRE).
Dilution cloning was used to isolate individual clones. Clones were selected using 450 ug/mL G418 and 100 ng/mL puromycin. Individual clones were evaluated based on their response in the presence and absence of test ligands.
Human 293 kidney cells stably transformed with CVBE and 6XEcRE LacZ were maintained in Minimum Essential Medium (Mediates, 10-010-CV) containing 10% FBS (Life Technologies, 26140-087), […] G418 (Mediates, 30-234-CR), and […] (Sigma, P-7255), at 37° C. in an atmosphere containing 5% CO2 and were subculture when they reached 75% confluence.
Z3 cells were seeded into 96-well tissue culture plates at a concentration of 2.5×10^3 cells per well and incubated at 37° C. in 5% CO2 for twenty-four hours. Stock solutions of ligands were prepared in DMSO. Ligand stock solutions were diluted 100 fold in media and 50 μL of this diluted ligand solution ([…]) was added to cells. The final concentration of DMSO was maintained at 0.03% in both controls and treatments.
Reporter gene expression was evaluated 48 hours after treatment of cells, β-galactosidase activity was measured using Gal Screen™ bioluminescent reporter gene assay system from Tropix (GSY1000). Fold induction activities were calculated by dividing relative light units (“RLU”) in ligand treated cells with RLU in DMSO treated cells. Luminescence was detected at room temperature using a Dynex MLX microtiter plate luminometer.
Flanking both constructs are long terminal repeats, G418 and puromycin are selectable markers, CMV is the cytomegalovirus promoter, VBE is coding sequence for amino acids 26-546 from Bombyx mori EcR inserted downstream of the VP16 transactivation domain, 6×EcRE is six copies of the ecdysone response element, lacZ encodes for the reporter enzyme β-galactosidase.
as §1

Structure (SMILES)	Fold Induction, Z3 Assay, 3.3 uM [2]	Z3 assay Rel Max FI [2]	EC50 [2] [nM]	other results
CCc1ccc(C(=O)NN(C(=O)c2cc(OC)c(C)c(OC)c2)C(c2ccccc2)C(C)(C)C)cc1 (racemic) [RG-115847]	–	–	–	Fold Induction, 27-63 Assay, 3.3 uM [1]: 2729; Fold Induction, 27-63 Assay, 33 uM [1]: 848; 27-63 assay Rel Max FI [1]: 1.120; EC50 [1]: 1100 nM
CCc1ccc(C(=O)NN(C(=O)c2cc(F)ccc2[N+](=O)[O-])C(C)(C)C)c(F)c1 [RG-115086]	433	0.433	692	–
CCc1c(OC)cccc1C(=O)NN(C(=O)c1cc2ccccc2n1C)C(C)(C)C [RG-115106, N′-2-Ethyl-3-methoxybenzoyl-N-t-butyl-N-(N-methylindole-2-carbonyl) hydrazide]	68	0.457	2570	–
CCc1ccc(C(=O)NN(C(=O)c2cc(C)nc(Cl)c2)C(C)(C)C)c(F)c1 [RG-115112]	618	0.618	309	–
CCc1ccc(C(=O)NN(C(=O)c2cc(Cl)nc(Cl)c2)C(C)(C)C)c(F)c1 [RG-115128]	110	0.538	245	–
CCc1ccc(C(=O)NN(C(=O)c2cccc([N+](=O)[O-])c2)C(C)(C)C)c(F)c1 [RG-115167]	73	0.533	240	–
Cc1cc(C)cc(C(=O)N(NC(=O)c2ccc3c(c2)OC(F)(F)O3)C(C)(C)C)c1 [RG-115256]	647	0.527	692	–
Cc1c(O)cccc1C(=O)NN(C(=O)c1cc(Cl)nc(Cl)c1)C(C)(C)C [RG-115261]	31	0.498	29500	–
CCc1ccc(C(=O)NN(C(=O)c2cccc(OC)c2)C(C)(C)C)c(F)c1 [RG-115269]	112	0.552	437	–
COCc1c(OC)cccc1C(=O)NN(C(=O)c1cc(Cl)cc(Cl)c1)C(C)(C)C [RG-115306]	5	0.424	3470	–
CC(C)(C)N(NC(=O)c1ccc2c(c1)OC(F)(F)O2)C(=O)c1ccccc1[N+](=O)[O-] [RG-115352]	7	0.265	45700	–
CCc1ccc(C(=O)NN(C(=O)c2ccccc2OC)C(C)(C)C)c(F)c1 [RG-115422]	204	0.769	398	–
COc1cc(C(=O)N(NC(=O)c2ccc3c(c2Cl)COCO3)C(C)(C)C)cc(OC)c1C [RG-115441]	118	0.759	126	–
CCc1c(OC)cccc1C(=O)NN(C(=O)c1cccc2c1OCO2)C(C)(C)C [RG-115496]	874	0.878	1180	–
COc1cc(C(=O)N(NC(=O)c2cccc(OC(C)=O)c2C)C(C)(C)C)cc(OC)c1C [RG-115557]	426	0.566	1700	–
CCc1c(C(=O)NN(C(=O)c2ccc(C)cc2)C(C)(C)C)ccc2c1OCOC2 [RG-115611]	745	0.703	1580	–
Cc1cc(C)cc(C(=O)N(NC(=O)c2ccc3cc[nH]c3c2)C(C)(C)C)c1 [RG-115689]	13	0.411	100000	–
CCc1c(OC)cccc1C(=O)NN(C(=O)c1ccc(C(=O)OC)cn1)C(C)(C)C [RG-115717]	–	–	–	Fold Induction, Z3 Assay, 33 uM [2]: 9
CCc1c(OC)cccc1C(=O)NN(C(=O)c1cc(C)n(-c2ccccc2)n1)C(C)(C)C [RG-115721]	–	–	–	Fold Induction, Z3 Assay, 33 uM [2]: 2
CCc1c(OC)cccc1C(=O)NN(C(=O)c1nn(C(c2ccccc2)(c2ccccc2)c2ccccc2)c2ccccc12)C(C)(C)C [RG-115722]	–	–	–	Fold Induction, Z3 Assay, 33 uM [2]: 1
CCc1c(OC)cccc1C(=O)NN(C(=O)c1n[nH]c2ccccc12)C(C)(C)C [RG-115723, 1H-Indazole-3-carboxylic acid N-tert-butyl-N′-(2-ethyl-3-methoxy-benzoyl)-hydrazide]	–	–	–	fold induction at 33 µM ([2]; HEK293, read-out: Fold Induction, Z3 Assay, 33 uM): 17
COc1cccc(C(=O)NN(C(=O)c2ccc(C(F)(F)F)nc2OC)C(C)(C)C)c1C [RG-115834]	–	–	–	Fold Induction, 27-63 Assay, 3.3 uM [1]: 1900; Fold Induction, 27-63 Assay, 33 uM [1]: 1837; 27-63 assay Rel Max FI [1]: 0.733; EC50 [1]: 1170 nM
